Laboratory results from ChEMBL document CHEMBL5614428, “Synthesis and antibacterial activities of heterocyclic ring-fused 20(S)-protopanaxadiol derivatives” (Bioorg Med Chem, 2024).
≈ marks a conversion by molar mass, not a printed value.

Assays:
Assay type in all cases: functional
[1] = test system: Staphylococcus aureus; test: Antibacterial activity against Staphylococcus aureus Newman assessed as inhibition of bacterial growth incubated for 18 hrs by two fold serial dilution assay
[2] = test system: Staphylococcus aureus; test: Antibacterial activity against methicillin-resistant Staphylococcus aureus USA300 assessed as inhibition of bacterial growth incubated for 18 hrs by two fold serial dilution assay
[3] = test system: Staphylococcus aureus; test: Antibacterial activity against methicillin-resistant Staphylococcus aureus NRS-1 assessed as inhibition of bacterial growth incubated for 18 hrs by two fold serial dilution assay
[4] = test system: Staphylococcus aureus; test: Antibacterial activity against methicillin-resistant Staphylococcus aureus NRS-70 assessed as inhibition of bacterial growth incubated for 18 hrs by two fold serial dilution assay
[5] = test system: Staphylococcus aureus; test: Antibacterial activity against methicillin-resistant Staphylococcus aureus NRS-100 assessed as inhibition of bacterial growth incubated for 18 hrs by two fold serial dilution assay
[6] = test system: Staphylococcus aureus; test: Antibacterial activity against methicillin-resistant Staphylococcus aureus NRS-108 assessed as inhibition of bacterial growth incubated for 18 hrs by two fold serial dilution assay
[7] = test system: Staphylococcus aureus; test: Antibacterial activity against methicillin-resistant Staphylococcus aureus NRS-271 assessed as inhibition of bacterial growth incubated for 18 hrs by two fold serial dilution assay
[8] = test system: Staphylococcus aureus; test: Antibacterial activity against methicillin-resistant Staphylococcus aureus XJ017 assessed as inhibition of bacterial growth incubated for 18 hrs by two fold serial dilution assay
[9] = test system: Staphylococcus aureus; test: Antibacterial activity against methicillin-resistant Staphylococcus aureus XJ036 assessed as inhibition of bacterial growth incubated for 18 hrs by two fold serial dilution assay

Row | Compound | MIC [1] [µg/mL] | MIC [2] [µg/mL] | MIC [3] [µg/mL] | MIC [4] [µg/mL] | MIC [5] [µg/mL] | MIC [6] [µg/mL] | MIC [7] [µg/mL] | MIC [8] [µg/mL] | MIC [9] [µg/mL]
1 | CC1(C)c2nc3ccccc3nc2C[C@]2(C)[C@H]3C[C@@H](O)[C@@H]4[C@@H]([C@@](C)(O)CCC(=O)Nc5cccnc5)CC[C@@]4(C)[C@]3(C)CC[C@@H]12 | 2 (≈ 3.27 µM) | 4 (≈ 6.55 µM) | > 64 | 8 (≈ 13.1 µM) | 8 (≈ 13.1 µM) | 8 (≈ 13.1 µM) | 16 (≈ 26.2 µM) | 16 (≈ 26.2 µM) | 4 (≈ 6.55 µM)
2 | COc1ccc(NC(=O)CC[C@](C)(O)[C@H]2CC[C@]3(C)[C@@H]2[C@H](O)C[C@@H]2[C@@]4(C)Cc5nc6ccccc6nc5C(C)(C)[C@@H]4CC[C@]23C)cc1 | > 64 | > 64 | – | – | – | – | – | – | –
3 | CC1(C)c2nc3ccccc3nc2C[C@]2(C)[C@H]3C[C@@H](O)[C@@H]4[C@@H]([C@@](C)(O)CCC(=O)NC5CCCC5)CC[C@@]4(C)[C@]3(C)CC[C@@H]12 | > 64 | > 64 | – | – | – | – | – | – | –
4 | CC1(C)c2nc3ccccc3nc2C[C@]2(C)[C@H]3C[C@@H](O)[C@@H]4[C@@H]([C@@](C)(O)CCC(=O)NC5CCCCC5)CC[C@@]4(C)[C@]3(C)CC[C@@H]12 | > 64 | > 64 | – | – | – | – | – | – | –
5 | CCNC(=O)CC[C@](C)(O)[C@H]1CC[C@]2(C)[C@@H]1[C@H](O)C[C@@H]1[C@@]3(C)Cc4nc5ccccc5nc4C(C)(C)[C@@H]3CC[C@]12C | 4 (≈ 7.12 µM) | 4 (≈ 7.12 µM) | > 64 | 4 (≈ 7.12 µM) | 4 (≈ 7.12 µM) | 4 (≈ 7.12 µM) | 4 (≈ 7.12 µM) | 8 (≈ 14.2 µM) | 4 (≈ 7.12 µM)
6 | CCCNC(=O)CC[C@](C)(O)[C@H]1CC[C@]2(C)[C@@H]1[C@H](O)C[C@@H]1[C@@]3(C)Cc4nc5ccccc5nc4C(C)(C)[C@@H]3CC[C@]12C | > 64 | > 64 | – | – | – | – | – | – | –
7 | CC1(C)c2nc3ccccc3nc2C[C@]2(C)[C@H]3C[C@@H](O)[C@@H]4[C@@H]([C@@](C)(O)CCC(=O)Nc5ccc6ncsc6c5)CC[C@@]4(C)[C@]3(C)CC[C@@H]12 | > 64 | > 64 | – | – | – | – | – | – | –
8 | CC1(C)c2nccnc2C[C@]2(C)[C@H]3C[C@@H](O)[C@@H]4[C@@H]([C@@](C)(O)CCCO)CC[C@@]4(C)[C@]3(C)CC[C@@H]12 | > 64 | > 64 | – | – | – | – | – | – | –
9 | CC1(C)c2nc(N)sc2C[C@]2(C)[C@H]3C[C@@H](O)[C@@H]4[C@@H]([C@@](C)(O)CCCO)CC[C@@]4(C)[C@]3(C)CC[C@@H]12 | 16 (≈ 32.6 µM) | > 64 | – | – | – | – | – | – | –
10 | CC1(C)c2oncc2C[C@]2(C)[C@H]3C[C@@H](O)[C@@H]4[C@@H]([C@@](C)(O)CCCO)CC[C@@]4(C)[C@]3(C)CC[C@@H]12 | > 64 | > 64 | – | – | – | – | – | – | –
11 | CC1(C)c2nc3ccccc3cc2C[C@]2(C)[C@H]3C[C@@H](O)[C@@H]4[C@@H]([C@@](C)(O)CCCO)CC[C@@]4(C)[C@]3(C)CC[C@@H]12 | 2 (≈ 3.85 µM) | > 64 | – | – | – | – | – | – | –
12 | Cc1nc2c(o1)C(C)(C)[C@@H]1CC[C@]3(C)[C@H](C[C@@H](O)[C@@H]4[C@@H]([C@@](C)(O)CCCO)CC[C@]43C)[C@@]1(C)C2 | > 64 | > 64 | – | – | – | – | – | – | –
13 | CC1(C)c2nc3ccccc3nc2C[C@]2(C)[C@H]3C[C@@H](O)[C@@H]4[C@@H]([C@@](C)(O)CCC(=O)Nc5ccccc5)CC[C@@]4(C)[C@]3(C)CC[C@@H]12 | > 64 | > 64 | – | – | – | – | – | – | –
14 | CN(C)C(=O)CC[C@](C)(O)[C@H]1CC[C@]2(C)[C@@H]1[C@H](O)C[C@@H]1[C@@]3(C)Cc4nc5ccccc5nc4C(C)(C)[C@@H]3CC[C@]12C | 4 (≈ 7.12 µM) | 4 (≈ 7.12 µM) | 4 (≈ 7.12 µM) | 4 (≈ 7.12 µM) | 8 (≈ 14.2 µM) | 4 (≈ 7.12 µM) | 4 (≈ 7.12 µM) | > 64 | 8 (≈ 14.2 µM)
15 | CC1(C)c2nc3ccccc3nc2C[C@]2(C)[C@H]3C[C@@H](O)[C@@H]4[C@@H]([C@@](C)(O)CCC(=O)Nc5cnccn5)CC[C@@]4(C)[C@]3(C)CC[C@@H]12 | 2 (≈ 3.27 µM) | 2 (≈ 3.27 µM) | > 64 | 4 (≈ 6.54 µM) | 4 (≈ 6.54 µM) | 4 (≈ 6.54 µM) | 8 (≈ 13.1 µM) | 16 (≈ 26.2 µM) | 4 (≈ 6.54 µM)
16 | CC1(C)c2nc3ccccc3nc2C[C@]2(C)[C@H]3C[C@@H](O)[C@@H]4[C@@H]([C@]5(C)CCCO5)CC[C@@]4(C)[C@]3(C)CC[C@@H]12 | > 64 | > 64 | – | – | – | – | – | – | –
